Legend:
Plasmodium falciparum = test: Calibr Malaria Delayed Death Assay SOP; assay type: functional, organism-based; details: for IC50: Plasmodium falciparum
[1] = microbe, parasite or virus in culture; details: Mycobacterium tuberculosis, 72 h, read-out: pIC50 (converted)
[2] = microbe, parasite or virus in culture; details: Mycobacterium tuberculosis, 96 h, read-out: pIC50 (converted)

Compound	pIC50 (Plasmodium falciparum)	IC50 (Plasmodium falciparum) [µM]	IC50 [1] [µM]	IC50 [2] [µM]
COCCOc1ccccc1CNCC1COC2(CCCC2)O1 (configuration not stated)	6.238	0.727		
O=C(Nc1ccc(OC2CCCC2)cc1)C1CCCN1c1nccs1 (configuration not stated)	7.074	0.0793		
Cc1cnccc1CN1CC[C@@](C)(O)[C@H](Oc2cccc(F)c2)C1	5.517	2.33		
O=C(Nc1nccs1)C1CCCN1Cc1ccccn1 (configuration not stated)	6.607	0.229		
CC(O)CN1CCC(CNCc2cccc(Cl)c2)CC1 (configuration not stated)	6.249	0.599		
CN(C)CCN(Cc1cccnc1)C(=O)c1ccn(-c2ccccc2)n1	5.955	0.876		
CN1[C@H](Cn2cccn2)C[C@@H]2CN(Cc3cccs3)CC[C@@H]21.O=C(O)C(F)(F)F.O=C(O)C(F)(F)F.O=C(O)C(F)(F)F	6.221	0.593		
O=C([C@@H]1Cc2[nH]cnc2CN1Cc1cc2ccccc2o1)N1CCCC1	5.967	1.09		
NCC1[C@H]2CN(Cc3cccc(Cl)c3)C[C@@H]12 (some centres not stated)	6.278	0.553		
c1ccn2c(C3CCCN(c4ncnc5c4CCNC5)C3)nnc2c1 (configuration not stated)	6.629	0.213		
COc1ccc(CN2CCNC(=O)CC2)cc1SC(F)(F)F	6.078	0.754		
O=C(O)C(F)(F)F.c1ccc(NC[C@@H]2CCC[C@@H]3CN(Cc4cccnc4)C[C@@H]32)nc1	5.946	1.22		
Cc1ccc(CNC(=O)c2cnn(C)c2)cc1F			275	> 501
CCN1CC2(CC1=O)CN(Cc1cnn(C)c1)CCN(C(=O)C(C)C)C2 (configuration not stated)			> 50.1	> 50.1
Clc1ccc(COCC2CCN(Cc3ccccn3)CC2)cc1			26.2	26.8
O=C(NCC1CCN(C2CC2)C1)c1ccccc1F (configuration not stated)			423	376
CN(C)S(=O)(=O)NCCNc1ccc2ccccc2n1			419	326
Fc1ccccc1-c1nc(CNCCn2cccn2)cs1			> 50.1	> 50.1
COc1ccc(CNC(=O)CNC2CCCSC2)cc1 (configuration not stated)			> 501	37.4
Nc1cc(-c2c[nH]nc2C2CCCCN2C(=O)C2CCCC2)ccn1 (configuration not stated)			> 50.1	> 50.1
COc1cccc(CNCCn2cccn2)c1OC			196	> 501
NCC1CCCN1CCc1ccccc1 (configuration not stated)			> 501	> 501
Nc1cc(=O)[nH]n1-c1ccc(C(F)(F)F)cn1			197	308
O=C(CCNCCO)c1ccccc1			137	> 501
Cc1cnc(N2CCC(O)CC2)c(Br)c1			> 501	> 501
COc1ccc(CNCCc2ccn(-c3ccccc3)n2)cc1O			> 50.1	> 50.1

Compound	pIC50 (Plasmodium falciparum)	IC50 (Plasmodium falciparum) [µM]	IC50 [1] [µM]	IC50 [2] [µM]
CC1CCCN(C(=O)c2nnn(-c3ccc(C(F)(F)F)cc3)n2)C1 (configuration not stated)			18.3	43.9
O=C(NCC1CC1)c1noc(-c2ccccc2F)n1			16.4	99.7
CC(C)CC(O)C(=O)N1CCN(c2cccnc2)CC1 (configuration not stated)			118	> 501
COc1cc(Oc2ncccc2C(F)(F)F)ccc1CN1CCCC1			> 50.1	21
CC(C)c1ncc(C(=O)N2CCS(=O)(=O)CC2)cn1			> 501	> 501
CNC(=O)[C@@H](C)Nc1ccc(C(F)(F)F)cn1			> 501	> 501
CN(Cc1ccc(Br)o1)C(=O)c1nccnc1N			210	414
CC(C)c1ccc(CN2C(=O)C3(CCNCC3)Nc3ccccc32)cc1			32	22.3
OCC1CCCN1c1cc(N2CCC(OC3CCCC3)CC2)ncn1 (configuration not stated)			15.5	13.8
CC(=O)c1cccc(OCC(=O)NC2CCCC2)c1			290	182
CCCn1nc(C(=O)NCc2csc(Br)c2)ccc1=O			222	154
NCC(O)c1ccc(Cl)cc1Cl (configuration not stated)			304	> 501
CN1CCN(C(=O)Cn2ccc3ccc(Br)cc32)CC1			132	173
NCc1nc(-c2cccc(Cl)c2)no1			323	> 501
CN(C)CCOc1ccccc1CN			> 501	> 501
COc1ccc(-c2nc(CCN)co2)cc1			80.5	71.4
CNc1cc(C(=O)NCC(OC)c2cccs2)ccn1 (configuration not stated)			22.9	> 501
CCCn1nccc1C(=O)Nc1nc(C)c(C)s1			> 50.1	47.4
CN(C)S(=O)(=O)NCC(O)c1ccc(Cl)c(F)c1 (configuration not stated)			131	> 501
N#Cc1ccc(S(=O)(=O)NCCCN)cc1C(F)(F)F			205	> 501
CCN1C[C@@H]2[C@@H](OC)CCN(C(=O)Cc3ccsc3)[C@@H]2C1			> 50.1	> 50.1
COc1ncccc1CN(C)S(=O)(=O)c1cccs1			159	286
Cn1nnnc1SCCNCc1ccc(Br)cc1			280	289
N#CCOC(=O)c1ccc2c(c1)OCCCO2			> 501	182
Cc1nc(-c2cccc(C(=O)O)c2)cc(C2CCN(C(C)C)C2)n1 (configuration not stated)			> 50.1	> 50.1
Cc1n[nH]cc1CNCCNc1ncc(Cl)cc1Cl			82.1	> 501

Compound	pIC50 (Plasmodium falciparum)	IC50 (Plasmodium falciparum) [µM]	IC50 [1] [µM]	IC50 [2] [µM]
CN(Cc1nc(CC2CC2)no1)CC1Cc2ccccc2O1 (configuration not stated)			38	22.8
N#Cc1ccc(S(=O)(=O)NCCN)cc1C(F)(F)F			160	223
CC(C)c1cc(C(=O)N(C)C(C)c2ccon2)on1 (configuration not stated)			> 501	437
NCCc1nsc2ccccc12			129	189
CN(C)C(CN)C1CCCCC1 (configuration not stated)			279	252
COCCOCCNC(=O)C(C)Oc1ccccc1C(F)(F)F (configuration not stated)			> 50.1	> 50.1
CCn1nnc(NCc2ccccc2)n1			229	> 501
NS(=O)(=O)c1ccc(F)c(C(=O)Nc2ccccc2)c1			262	> 501
CN(CCc1ccccn1)Cc1nccn1Cc1ccccc1			43.5	> 50.1
COCCOC1CCN(c2cccc(C)n2)CC1			245	366
CN(Cc1cc(Br)cs1)C(=O)CC1(N)CCC1			158	> 501
CN1CCC(Cc2cc(Nc3ncccn3)ncn2)CC1			> 50.1	> 50.1
COC(=O)c1csc(NC(=O)CCn2cccn2)c1			303	> 501
CCc1n[nH]c(SCC(=O)Nc2ccc(Br)cn2)n1			144	186
O=C(CC1C=CCC1)N1CCN(c2ccccn2)CC1 (configuration not stated)			167	407
CC(C)n1nnc(CC(=O)NCC2(c3cccc(F)c3)CCCC2)n1			> 50.1	> 50.1
CCc1c(C(=O)NCC(=O)OCC2CC2)cnn1-c1ccc(C)cc1			45.9	18.9
O=C(Cc1ccc2c(c1)OCCO2)N1CCCC(n2ccnc2)C1 (configuration not stated)			> 50.1	> 50.1
CNc1nc(C)cc(NCc2cc(C)cc3c(C)c(C)[nH]c23)n1			28	44.8
Cc1cc(C)cc(NC(=O)CNCCCO)c1			> 501	> 501
Cc1ccc(S(=O)(=O)CCC(=O)NC(N)=O)cc1			155	> 501
CC(C)Oc1ccc(C(CN)N(C)C)cc1 (configuration not stated)			133	225
CCCc1nc(N2CCCC(C)C2)c2c(n1)c(C)nn2CC (configuration not stated)			24.2	> 50.1
CN(Cc1cccn1C)C(=O)c1ccccc1F			219	262
CC(C)c1cc(C(=O)NCCCN(C)C)nc(N2CCCC2)n1			30	31.2
CSc1cncc(NCCC(=O)N2CCCC2)n1			336	> 501

Compound	pIC50 (Plasmodium falciparum)	IC50 (Plasmodium falciparum) [µM]	IC50 [1] [µM]	IC50 [2] [µM]
Cc1ccc(C(=O)NCC(=O)NC(C)(C)C)c(O)c1			> 501	> 501
Cc1c[nH]c(C(=O)NC2COc3ccccc3C2)n1 (configuration not stated)			> 501	> 501
COc1ccc2nnc(C(=O)NCC3CCCC3)nc2c1			12.3	> 50.1
COc1ccccc1C(O)CNc1cccc(C)n1 (configuration not stated)			> 501	136
CNS(=O)(=O)c1ccc(NCc2ccco2)cc1OC			437	245
CS(=O)(=O)CCN1CCC(Oc2ccc(F)cc2)CC1			221	280
Fc1ccccc1CN1CCC[C@H](Cn2nnc(-c3cccs3)n2)C1			12.9	26.3
CC(C)NC(=O)NC(C)c1ccccc1 (configuration not stated)			> 501	> 501
O=C(c1ccccn1)N1CCC2(CCCC2)CC1			245	160
CC[C@H](N)C(=O)N(C)CCOc1cccc(Cl)c1			377	263
CCOc1ccc(Cn2nc(COC)oc2=O)nc1			246	19.1
O=C(Nc1ccc(F)c(Cl)c1)N1CCC(O)C1 (configuration not stated)			212	314
CNC(=O)c1cccc(CNC(C)c2ccc(F)cc2N(C)C)c1 (configuration not stated)			> 50.1	> 50.1
Cc1cc(C)cc(OCCNC(=O)CSCC(N)=O)c1			139	> 501
COc1ccc(S(=O)(=O)Nc2cccc(CN)c2)cc1			162	> 501
NCC(=O)N1CCCC(CCc2c(F)cccc2F)C1 (configuration not stated)			238	258
CNc1nc(C(=O)NC2COc3ccccc3C2)cs1 (configuration not stated)			130	262
CCc1ccc(S(=O)(=O)N(C)CC(N)=O)s1			244	> 501
CCOc1ccc(C(C)=O)cc1CN1CCCC1			59.8	111
COCCN(Cc1ccsc1)C(=O)CC1CCNC1 (configuration not stated)			187	80.1
COCCNC(=O)Nc1ccc(OC(F)F)c(F)c1			273	253
CC1CCN(S(=O)(=O)NC(C)Cc2ccco2)CC1 (configuration not stated)			> 50.1	> 50.1
c1ccc(Oc2cccc(NCc3csnn3)c2)nc1			298	171

— ChEMBL document CHEMBL3988442, “University of Dundee, Small-Polar-MMV Screening Library” (2021)
